In patent US20230157952A1, “METHOD FOR IMPROVING THE STABILITY OF A PHARMACEUTICAL COMPOSITION COMPRISING A HIGH PENETRATION DRUG, AND THE PHARMACEUTICAL COMPOSITION OBTAINED THEREFROM” (Techfields Inc., priority 2020, published 2023):

Assay: Effect of solvent on the stability of the solution (purity at various pH values and temperature)
Assay type: physicochemical
Settings: 7% solution

In the case of `CCN(CC)CCOC(=O)c1ccccc1OC(C)=O.Cl`, the “Purity(%) at day 0” value (solvent 15% ethanol, pH 1.0, day 0) is reported as 99.1 ± 0.2%, the “Purity(%) at day 14 (5° C.)” value (solvent 15% ethanol, pH 1.0, day 14, 5° C.) is reported as 92.1 ± 0.3% and the “Purity(%) at day 14 (25° C.)” value (solvent 15% ethanol, pH 1.0, day 14, 25° C.) is reported as 62.7 ± 0.3%. The “Purity(%) at day 14 (40° C.)” value (solvent 15% ethanol, pH 1.0, day 14, 40° C.) was 0%, the “Purity (%) at day 14 (60° C.)” value (solvent 15% ethanol, pH 1.0, day 14, 60° C.) was 0% and the “Purity(%) at day 0” value (solvent 15% ethanol, pH 2.0, day 0) was 99.4 ± 0.2%. For the same compound, the “Purity(%) at day 14 (5° C.)” value (solvent 15% ethanol, pH 2.0, day 14, 5° C.) was 96.5 ± 0.2%, the “Purity(%) at day 14 (25° C.)” value (solvent 15% ethanol, pH 2.0, day 14, 25° C.) was 83.8 ± 0.3% and the “Purity(%) at day 14 (40° C.)” value (solvent 15% ethanol, pH 2.0, day 14, 40° C.) was 0%. For the same compound, the “Purity (%) at day 14 (60° C.)” value (solvent 15% ethanol, pH 2.0, day 14, 60° C.) was 0%, the “Purity(%) at day 0” value (solvent 15% ethanol, pH 3.0, day 0) was 99.5 ± 0.1% and the “Purity(%) at day 14 (25° C.)” value (solvent 15% ethanol, pH 3.0, day 14, 25° C.) was 88.8 ± 0.2%. The “Purity(%) at day 14 (40° C.)” value (solvent 15% ethanol, pH 3.0, day 14, 40° C.) was 2.9 ± 0.3%, the “Purity (%) at day 14 (60° C.)” value (solvent 15% ethanol, pH 3.0, day 14, 60° C.) was 0% and the “Purity(%) at day 0” value (solvent 15% ethanol, pH 3.7, day 0) was 99.6 ± 0.1%. The “Purity(%) at day 14 (25° C.)” value (solvent 15% ethanol, pH 3.7, day 14, 25° C.) was 96.2 ± 0.3%, the “Purity(%) at day 14 (40° C.)” value (solvent 15% ethanol, pH 3.7, day 14, 40° C.) was 15.2 ± 0.3% and the “Purity (%) at day 14 (60° C.)” value (solvent 15% ethanol, pH 3.7, day 14, 60° C.) was 0%. The “Purity(%) at day 0” value (solvent 15% ethanol, pH 4.0, day 0) was 99.7 ± 0.2%, the “Purity(%) at day 14 (25° C.)” value (solvent 15% ethanol, pH 4.0, day 14, 25° C.) was 96.7 ± 0.2% and the “Purity(%) at day 14 (40° C.)” value (solvent 15% ethanol, pH 4.0, day 14, 40° C.) was 15.7 ± 0.3%. The “Purity (%) at day 14 (60° C.)” value (solvent 15% ethanol, pH 4.0, day 14, 60° C.) was 0%, the “Purity(%) at day 0” value (solvent 15% ethanol, pH 4.3, day 0) was 99.7 ± 0.1% and the “Purity(%) at day 14 (25° C.)” value (solvent 15% ethanol, pH 4.3, day 14, 25° C.) was 96.7 ± 0.1%. For the same compound, the “Purity(%) at day 14 (40° C.)” value (solvent 15% ethanol, pH 4.3, day 14, 40° C.) was 13.6 ± 0.3%, the “Purity (%) at day 14 (60° C.)” value (solvent 15% ethanol, pH 4.3, day 14, 60° C.) was 0% and the “Purity(%) at day 0” value (solvent 15% ethanol, pH 4.6, day 0) was 99.6 ± 0.2%. The “Purity(%) at day 14 (25° C.)” value (solvent 15% ethanol, pH 4.6, day 14, 25° C.) was 96.5 ± 0.2%, the “Purity(%) at day 14 (40° C.)” value (solvent 15% ethanol, pH 4.6, day 14, 40° C.) was 4.1 ± 0.3% and the “Purity (%) at day 14 (60° C.)” value (solvent 15% ethanol, pH 4.6, day 14, 60° C.) was 0%. The “Purity(%) at day 0” value (solvent 15% ethanol, pH 5.0, day 0) was 99.5 ± 0.2%, the “Purity(%) at day 14 (5° C.)” value (solvent 15% ethanol, pH 5.0, day 14, 5° C.) was 97.4 ± 0.2% and the “Purity(%) at day 14 (25° C.)” value (solvent 15% ethanol, pH 5.0, day 14, 25° C.) was 92.9 ± 0.2%. For the same compound, the “Purity(%) at day 14 (40° C.)” value (solvent 15% ethanol, pH 5.0, day 14, 40° C.) was 1.3 ± 0.3%, the “Purity (%) at day 14 (60° C.)” value (solvent 15% ethanol, pH 5.0, day 14, 60° C.) was 0% and the “Purity(%) at day 0” value (solvent 15% ethanol, pH 6.0, day 0) was 99.4 ± 0.2%. The “Purity(%) at day 14 (5° C.)” value (solvent 15% ethanol, pH 6.0, day 14, 5° C.) was 92.3 ± 0.3%, the “Purity(%) at day 14 (25° C.)” value (solvent 15% ethanol, pH 6.0, day 14, 25° C.) was 84.9 ± 0.3% and the “Purity(%) at day 14 (40° C.)” value (solvent 15% ethanol, pH 6.0, day 14, 40° C.) was 0%. The “Purity (%) at day 14 (60° C.)” value (solvent 15% ethanol, pH 6.0, day 14, 60° C.) was 0%, the “Purity(%) at day 0” value (solvent 15% ethanol, pH 7.0, day 0) was 99.2 ± 0.1% and the “Purity(%) at day 14 (5° C.)” value (solvent 15% ethanol, pH 7.0, day 14, 5° C.) was 87.9 ± 0.3%. For the same compound, the “Purity(%) at day 14 (25° C.)” value (solvent 15% ethanol, pH 7.0, day 14, 25° C.) was 60.2 ± 0.3%, the “Purity(%) at day 14 (40° C.)” value (solvent 15% ethanol, pH 7.0, day 14, 40° C.) was 0% and the “Purity (%) at day 14 (60° C.)” value (solvent 15% ethanol, pH 7.0, day 14, 60° C.) was 0%. The “Purity(%) at day 0” value (solvent 15% ethanol, pH 8.0, day 0) was 99.1 ± 0.2%, the “Purity(%) at day 14 (5° C.)” value (solvent 15% ethanol, pH 8.0, day 14, 5° C.) was 58.7 ± 0.4% and the “Purity(%) at day 14 (25° C.)” value (solvent 15% ethanol, pH 8.0, day 14, 25° C.) was 22.7 ± 0.3%. For the same compound, the “Purity(%) at day 14 (40° C.)” value (solvent 15% ethanol, pH 8.0, day 14, 40° C.) was 0%, the “Purity (%) at day 14 (60° C.)” value (solvent 15% ethanol, pH 8.0, day 14, 60° C.) was 0% and the “Purity(%) at day 0” value (solvent 25% ethanol, pH 1.0, day 0) was 99.1 ± 0.3%. For the same compound, the “Purity(%) at day 14 (5° C.)” value (solvent 25% ethanol, pH 1.0, day 14, 5° C.) was 92.3 ± 0.3%, the “Purity(%) at day 14 (25° C.)” value (solvent 25% ethanol, pH 1.0, day 14, 25° C.) was 63.5 ± 0.3% and the “Purity(%) at day 14 (40° C.)” value (solvent 25% ethanol, pH 1.0, day 14, 40° C.) was 0%. The “Purity (%) at day 14 (60° C.)” value (solvent 25% ethanol, pH 1.0, day 14, 60° C.) was 0%, the “Purity(%) at day 0” value (solvent 25% ethanol, pH 2.0, day 0) was 99.4 ± 0.3% and the “Purity(%) at day 14 (5° C.)” value (solvent 25% ethanol, pH 2.0, day 14, 5° C.) was 96.9 ± 0.3%. The “Purity(%) at day 14 (25° C.)” value (solvent 25% ethanol, pH 2.0, day 14, 25° C.) was 84.2 ± 0.3%, the “Purity(%) at day 14 (40° C.)” value (solvent 25% ethanol, pH 2.0, day 14, 40° C.) was 0% and the “Purity (%) at day 14 (60° C.)” value (solvent 25% ethanol, pH 2.0, day 14, 60° C.) was 0%. The “Purity(%) at day 0” value (solvent 25% ethanol, pH 3.0, day 0) was 99.5 ± 0.2%, the “Purity(%) at day 14 (25° C.)” value (solvent 25% ethanol, pH 3.0, day 14, 25° C.) was 88.9 ± 0.2% and the “Purity(%) at day 14 (40° C.)” value (solvent 25% ethanol, pH 3.0, day 14, 40° C.) was 2.9 ± 0.2%. For the same compound, the “Purity (%) at day 14 (60° C.)” value (solvent 25% ethanol, pH 3.0, day 14, 60° C.) was 0%, the “Purity(%) at day 0” value (solvent 25% ethanol, pH 3.7, day 0) was 99.6 ± 0.1% and the “Purity(%) at day 14 (5° C.)” value (solvent 25% ethanol, pH 3.7, day 14, 5° C.) was 99.1 ± 0.2%. For the same compound, the “Purity(%) at day 14 (25° C.)” value (solvent 25% ethanol, pH 3.7, day 14, 25° C.) was 96.3 ± 0.2%, the “Purity(%) at day 14 (40° C.)” value (solvent 25% ethanol, pH 3.7, day 14, 40° C.) was 15.1 ± 0.3% and the “Purity (%) at day 14 (60° C.)” value (solvent 25% ethanol, pH 3.7, day 14, 60° C.) was 0%. For the same compound, the “Purity(%) at day 0” value (solvent 25% ethanol, pH 4.0, day 0) was 99.8 ± 0.1%, the “Purity(%) at day 14 (5° C.)” value (solvent 25% ethanol, pH 4.0, day 14, 5° C.) was 99.1 ± 0.1% and the “Purity(%) at day 14 (25° C.)” value (solvent 25% ethanol, pH 4.0, day 14, 25° C.) was 96.9 ± 0.1%. For the same compound, the “Purity(%) at day 14 (40° C.)” value (solvent 25% ethanol, pH 4.0, day 14, 40° C.) was 15.2 ± 0.3%, the “Purity (%) at day 14 (60° C.)” value (solvent 25% ethanol, pH 4.0, day 14, 60° C.) was 0% and the “Purity(%) at day 0” value (solvent 25% ethanol, pH 4.3, day 0) was 99.7 ± 0.2%. For the same compound, the “Purity(%) at day 14 (5° C.)” value (solvent 25% ethanol, pH 4.3, day 14, 5° C.) was 99.1 ± 0.2%, the “Purity(%) at day 14 (25° C.)” value (solvent 25% ethanol, pH 4.3, day 14, 25° C.) was 96.8 ± 0.2% and the “Purity(%) at day 14 (40° C.)” value (solvent 25% ethanol, pH 4.3, day 14, 40° C.) was 13.8 ± 0.3%. The “Purity (%) at day 14 (60° C.)” value (solvent 25% ethanol, pH 4.3, day 14, 60° C.) was 0%, the “Purity(%) at day 0” value (solvent 25% ethanol, pH 4.6, day 0) was 99.7 ± 0.2% and the “Purity(%) at day 14 (25° C.)” value (solvent 25% ethanol, pH 4.6, day 14, 25° C.) was 96.5 ± 0.2%. The “Purity(%) at day 14 (40° C.)” value (solvent 25% ethanol, pH 4.6, day 14, 40° C.) was 4.2 ± 0.1%, the “Purity (%) at day 14 (60° C.)” value (solvent 25% ethanol, pH 4.6, day 14, 60° C.) was 0% and the “Purity(%) at day 0” value (solvent 25% ethanol, pH 5.0, day 0) was 99.6 ± 0.2%. The “Purity(%) at day 14 (25° C.)” value (solvent 25% ethanol, pH 5.0, day 14, 25° C.) was 92.8 ± 0.2%, the “Purity(%) at day 14 (40° C.)” value (solvent 25% ethanol, pH 5.0, day 14, 40° C.) was 1.6 ± 0.1% and the “Purity (%) at day 14 (60° C.)” value (solvent 25% ethanol, pH 5.0, day 14, 60° C.) was 0%. The “Purity(%) at day 0” value (solvent 25% ethanol, pH 6.0, day 0) was 99.5 ± 0.3%, the “Purity(%) at day 14 (5° C.)” value (solvent 25% ethanol, pH 6.0, day 14, 5° C.) was 92.7 ± 0.2% and the “Purity(%) at day 14 (25° C.)” value (solvent 25% ethanol, pH 6.0, day 14, 25° C.) was 85.0 ± 0.3%. The “Purity(%) at day 14 (40° C.)” value (solvent 25% ethanol, pH 6.0, day 14, 40° C.) was 0%, the “Purity (%) at day 14 (60° C.)” value (solvent 25% ethanol, pH 6.0, day 14, 60° C.) was 0% and the “Purity(%) at day 0” value (solvent 25% ethanol, pH 7.0, day 0) was 99.4 ± 0.3%. For the same compound, the “Purity(%) at day 14 (5° C.)” value (solvent 25% ethanol, pH 7.0, day 14, 5° C.) was 88.0 ± 0.3%, the “Purity(%) at day 14 (25° C.)” value (solvent 25% ethanol, pH 7.0, day 14, 25° C.) was 61.2 ± 0.3% and the “Purity(%) at day 14 (40° C.)” value (solvent 25% ethanol, pH 7.0, day 14, 40° C.) was 0%. The “Purity (%) at day 14 (60° C.)” value (solvent 25% ethanol, pH 7.0, day 14, 60° C.) was 0%, the “Purity(%) at day 0” value (solvent 25% ethanol, pH 8.0, day 0) was 99.1 ± 0.3% and the “Purity(%) at day 14 (5° C.)” value (solvent 25% ethanol, pH 8.0, day 14, 5° C.) was 59.8 ± 0.3%. For the same compound, the “Purity(%) at day 14 (25° C.)” value (solvent 25% ethanol, pH 8.0, day 14, 25° C.) was 23.1 ± 0.3% and the “Purity(%) at day 14 (40° C.)” value (solvent 25% ethanol, pH 8.0, day 14, 40° C.) was 0%.
